BindingDB's records for doi:10.1021/jm00011a020 (H. Lundbeck, 1995)

Target: Sigma-2 receptor (TMEM97) (Rattus norvegicus)
Test: Binding affinity towards Sigma receptor site 2 in rat brain using [3H]DTG as radioligand

Compound	IC50 [nM]
Fc1ccc(-n2cc(CCCCN3CCC4(CC3)OCc3c(C(F)(F)F)cccc34)c3ccccc32)cc1 [1'-{4-[1-(4-fluorophenyl)-1H-3-indolyl]butyl}-4-trifluoromethylspiro[1,3-dihydroisobenzofuran-1,4'-(hexahydropyridine)]]	2.6
Fc1ccc(-n2cc(CCCCN3CCC4(CC3)Cc3ccccc3O4)c3ccccc32)cc1 [1'-{4-[1-(4-fluorophenyl)-1H-3-indolyl]butyl}spiro[2,3-dihydrobenzo[b]furan-2,4'-(hexahydropyridine)]]	340
c1ccc(CCN2CCC3(CC2)OCc2ccccc23)cc1 [1'-(2-phenylethyl)-3H-spiro[2-benzofuran-1,4'-piperidine]]	2.9
Fc1ccc(-n2cc(CCCCN3CCC4(CC3)COc3ccccc34)c3ccccc32)cc1 [1'-{4-[1-(4-fluorophenyl)-1H-3-indolyl]butyl}spiro[2,3-dihydrobenzo[b]furan-3,4'-(hexahydropyridine)]]	12
Fc1ccc(-n2cc(CCCCN3CCC4(CC3)OCCc3ccccc34)c3ccccc32)cc1 [1'-{4-[1-(4-fluorophenyl)-1H-3-indolyl]butyl}spiro[3,4-dihydro-1H-isochromene-1,4'-(hexahydropyridine)]]	0.9
Fc1ccc(-n2cc(CCCCN3CCC4(CC3)Cc3ccccc3CO4)c3ccccc32)cc1 [1'-{4-[1-(4-fluorophenyl)-1H-3-indolyl]butyl}spiro[3,4-dihydro-1H-isochromene-3,4'-(hexahydropyridine)]]	1.1
Fc1ccc(-n2cc(CCCCN3CCC4(CC3)OCc3cccc(F)c34)c3ccccc32)cc1 [1-[1-(4-fluorophenyl)-1H-3-indolyl]-4-[7-fluorospiro[1,3-dihydroisobenzofuran-1,4'-(hexahydropyridine)]-1-yl]butane]	0.58
Fc1ccc(-n2cc(CCCCN3CCC4(CC3)SCc3ccccc34)c3ccccc32)cc1 [1'-{4-[1-(4-fluorophenyl)-1H-3-indolyl]butyl}spiro[1,3-dihydrobenzo[c]thiophene-1,4'-(hexahydropyridine)]]	0.14
Fc1ccc(-n2cc(CCCCN3CCC4(CC3)Oc3ccccc3O4)c3ccccc32)cc1 [1'-{4-[1-(4-fluorophenyl)-1H-3-indolyl]butyl}spiro[benzo[d][1,3]dioxole-2,4'-(hexahydropyridine)]]	270
c1ccc2c(c1)COC21CCN(CCCCC2CCCCC2)CC1 [1'-(cyclohexylbutyl)-3H-spiro[2-benzofuran-1,4'-piperidine]]	0.07
Fc1ccc(-n2cc(CCCCN3CCC4(CC3)COCc3ccccc34)c3ccccc32)cc1 [1'-{4-[1-(4-fluorophenyl)-1H-3-indolyl]butyl}spiro[3,4-dihydro-1H-isochromene-4,4'-(hexahydropyridine)]]	0.34
c1ccc2c(c1)COC21CCN(CCCOC2CCCCC2)CC1 [1'-(3-cyclohexyloxypropyl)-3H-spiro[2-benzofuran-1,4'-piperidine]]	0.07
Fc1ccc(-n2cc(CCCCN3CCC4(CC3)COc3ccccc3C4)c3ccccc32)cc1 [1'-{4-[1-(4-fluorophenyl)-1H-3-indolyl]butyl}spiro[3,4-dihydro-2H-chromene-3,4'-(hexahydropyridine)]]	250
Fc1ccc(-n2cc(CCCCN3CCC4(CCOc5ccccc54)CC3)c3ccccc32)cc1 [1'-{4-[1-(4-fluorophenyl)-1H-3-indolyl]butyl}spiro[3,4-dihydro-2H-chromene-4,4'-(hexahydropyridine)]]	3
Fc1ccc(-n2cc(CCCCN3CCC4(CC3)OCc3c(F)cccc34)c3ccccc32)cc1 [1-[1-(4-fluorophenyl)-1H-3-indolyl]-4-[4-fluorospiro[1,3-dihydroisobenzofuran-1,4'-(hexahydropyridine)]-1-yl]butane]	1.8
